The source of these data is PMC6156383 (Frontiers in Psychiatry, 2018).

In assay [1] the target is T1, NOP receptor (Homo sapiens, UniProt P41146).
T1 construct: expressed in transfected cells
Format: binding.

Assay [2] concerns the target T2, DOP receptor (Homo sapiens, UniProt P41143).
T2 construct: expressed in transfected cells
Nature of the assay: [35S]GTPγS binding stimulation (agonist), CHO membranes. Format: biochemical. The note with it: for DOP % stim: [35S]GTPγS stimulation relative to standard agonist DPDPE; for EC50: [35S]GTPγS stimulation, * = too little stimulation (if < 15% an EC50 was not always determined).

Assay [3] deals with T1, NOP receptor. The assay is described as above. The format is biochemical. The note with it: for NOP % stim: [35S]GTPγS stimulation relative to standard agonist N/OFQ; for EC50: [35S]GTPγS stimulation, average ± SD. (GTPγS resists hydrolysis and so accumulates on activated G proteins.)
Assay [4] deals with T3, KOP receptor (Homo sapiens, UniProt P41145).
T3 construct: expressed in transfected cells
T3 sequence (P41145 whole entry): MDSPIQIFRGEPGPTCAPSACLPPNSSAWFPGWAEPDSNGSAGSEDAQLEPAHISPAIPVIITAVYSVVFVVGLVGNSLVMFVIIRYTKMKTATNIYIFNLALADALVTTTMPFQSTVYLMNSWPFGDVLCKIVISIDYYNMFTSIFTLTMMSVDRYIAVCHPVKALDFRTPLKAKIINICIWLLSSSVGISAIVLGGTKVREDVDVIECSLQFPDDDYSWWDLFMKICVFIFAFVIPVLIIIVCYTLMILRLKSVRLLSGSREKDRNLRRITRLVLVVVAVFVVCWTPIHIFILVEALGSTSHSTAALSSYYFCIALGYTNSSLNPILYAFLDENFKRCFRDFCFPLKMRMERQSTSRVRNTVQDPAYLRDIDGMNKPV
The format is biochemical.

Assay [5] addresses T4, MOP receptor (Homo sapiens, UniProt P35372).
T4 construct: expressed in transfected cells
Format: biochemical.

Assay [6] concerns the target T2, DOP receptor. Format: binding.
The target in assay [7] is T3, KOP receptor. The format is binding.
For assay [8], the target named is T4, MOP receptor. The format is binding.
Assay [9] addresses T4, MOP receptor. The assay is described as follows: [35S]GTPγS antagonist assay and Schild analysis versus DAMGO. Format: biochemical. The note with it: for Type of antagonism at MOP: Schild analysis.
In a further assay the test system is CD1 mice. The assay is described as follows: Mouse tail flick assay (radiant heat, acute thermal nociception). The note with it: 3 mg/kg; 30, 60, 120 min. Format: in vivo. For orientation: In hot-plate and tail-flick tests a longer latency is read as antinociception.
Where [10] appears, read: antagonist activity in [35S]GTPγS assay, Schild analysis versus DAMGO.

Several values for one entry are separate records, joined by “and”; a condition that tells them apart may be missing. Identical values can stand only once. Counter-ions that a name gives are not always drawn.

T2 sequence (P41143 whole entry): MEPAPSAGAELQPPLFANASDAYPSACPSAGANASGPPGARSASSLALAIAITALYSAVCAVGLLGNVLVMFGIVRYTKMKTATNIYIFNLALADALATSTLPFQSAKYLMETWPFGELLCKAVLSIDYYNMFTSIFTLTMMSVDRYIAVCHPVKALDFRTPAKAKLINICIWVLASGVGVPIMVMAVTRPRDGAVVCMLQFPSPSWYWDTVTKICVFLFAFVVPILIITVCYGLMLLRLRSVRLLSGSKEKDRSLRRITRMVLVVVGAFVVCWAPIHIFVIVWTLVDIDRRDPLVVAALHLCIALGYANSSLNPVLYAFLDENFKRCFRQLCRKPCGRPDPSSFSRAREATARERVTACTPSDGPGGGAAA
T1 sequence (P41146 whole entry): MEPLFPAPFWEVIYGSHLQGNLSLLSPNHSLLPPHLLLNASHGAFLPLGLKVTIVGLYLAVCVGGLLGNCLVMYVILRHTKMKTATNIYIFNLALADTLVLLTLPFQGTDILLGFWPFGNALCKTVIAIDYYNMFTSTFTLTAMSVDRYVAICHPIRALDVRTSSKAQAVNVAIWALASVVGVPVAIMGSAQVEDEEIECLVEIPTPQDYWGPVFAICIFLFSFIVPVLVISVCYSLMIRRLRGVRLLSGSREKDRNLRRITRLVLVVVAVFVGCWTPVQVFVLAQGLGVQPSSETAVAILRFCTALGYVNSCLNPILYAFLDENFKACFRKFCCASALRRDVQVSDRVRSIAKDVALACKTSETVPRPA
T4 sequence (P35372 whole entry): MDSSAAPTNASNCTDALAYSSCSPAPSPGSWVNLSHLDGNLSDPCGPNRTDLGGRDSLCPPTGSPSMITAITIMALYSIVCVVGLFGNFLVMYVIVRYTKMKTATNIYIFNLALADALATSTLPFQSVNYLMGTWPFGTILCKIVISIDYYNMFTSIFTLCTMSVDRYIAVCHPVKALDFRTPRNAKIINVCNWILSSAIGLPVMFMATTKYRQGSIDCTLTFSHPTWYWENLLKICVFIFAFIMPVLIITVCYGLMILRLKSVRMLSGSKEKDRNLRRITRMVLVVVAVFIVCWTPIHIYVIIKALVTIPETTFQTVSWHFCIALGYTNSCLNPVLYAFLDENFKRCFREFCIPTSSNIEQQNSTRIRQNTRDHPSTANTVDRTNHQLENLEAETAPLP

One may read the Ki as the dissociation constant of the complex between target and ligand, obtained from inhibition or displacement. Low values mean a stronger hold on the target, high ones a looser hold on the target. In general, EC50 refers to the concentration at which the effect is half-maximal. A higher EC50 goes with weaker potency. Consider `O=C(Cc1ccccc1)O[C@@]12CCC(=O)[C@@H]3Oc4c(O)ccc5c4[C@@]31CCN(CC1CC1)[C@@H]2C5` [Compound 7a, 14β-phenylacetyl-17-cyclopropylmethyl-7,8-dihydronoroxymorphinone], for which the Ki came to 127 ± 17 nM on NOP receptor [1], 3.1 ± 0.6 nM at DOP receptor [6], 1.14 ± 0.46 nM on KOP receptor [7] and 0.86 ± 0.18 nM at MOP receptor [8]. This compound came in with a DOP % stim on DOP receptor [2] of 30.5 ± 5.5%. In addition, the EC50 on DOP receptor [2] was determined as 5.6 ± 0.4 nM; on NOP receptor [3], 401 ± 161 nM; at KOP receptor [4], 1.2 ± 0.6 nM; at MOP receptor [5], 3.8 ± 1.8 nM. The NOP % stim on NOP receptor [3] was 28.1 ± 4.8%. Besides, on KOP receptor [4], the KOP % stim was 44.5 ± 13%. Besides, on MOP receptor [5], the MOP % stim is 31.6 ± 4.2%.

On to `Cc1ccc(CC(=O)O[C@@]23CCC(=O)[C@@H]4Oc5c(O)ccc6c5[C@@]42CCN(CC2CC2)[C@@H]3C6)cc1` [Compound 7b, 14β-(4′-methylphenylacetyl)-17-cyclopropylmethyl-7,8-dihydronoroxymorphinone], for which the Ki at NOP receptor [1] is 36.3 ± 4.2 nM; on DOP receptor [6], 1.7 ± 0.2 nM; at KOP receptor [7], 1.56 ± 0.28 nM; on MOP receptor [8] it was 1.87 ± 0.09 nM. Besides, on DOP receptor [2], the DOP % stim turned out to be 27.0 ± 4.8%. Further, the EC50 at DOP receptor [2] turned out to be 3.8 ± 1.1 nM; on NOP receptor [3] it was 169 ± 3.4 nM; on KOP receptor [4], 6.3 ± 2.2 nM; at MOP receptor [5], 1.6 ± 0.9 nM. The same compound had an NOP % stim on NOP receptor [3] of 22.3 ± 1.4%. Besides, the KOP % stim at KOP receptor [4] is reported as 11.5 ± 2.7%. For the same compound, on MOP receptor [5], the MOP % stim is given as 34.9 ± 2.0%.

`Cc1ccccc1CC(=O)O[C@@]12CCC(=O)[C@@H]3Oc4c(O)ccc5c4[C@@]31CCN(CC1CC1)[C@@H]2C5` [Compound 7c, 14β-(2′-methylphenylacetyl)-17-cyclopropylmethyl-7,8-dihydronoroxymorphinone]: the Ki stood at 44.1 ± 3.1 nM on NOP receptor [1], 1.97 ± 0.19 nM at DOP receptor [6], 1.69 ± 1.2 nM at KOP receptor [7] and 3.59 ± 0.86 nM on MOP receptor [8]. This compound returned a DOP % stim on DOP receptor [2] of 12.6 ± 3.1%. Further, the EC50 at DOP receptor [2] came to 201 ± 59 nM; at NOP receptor [3] it was 106 ± 32.2 nM; on KOP receptor [4], 2.9 ± 1.8 nM; on MOP receptor [5] it was 2.2 ± 0.2 nM. The compound further had an NOP % stim on NOP receptor [3] of 21.1 ± 1.4%. Further, the KOP % stim at KOP receptor [4] was 86% and 86.3 ± 6.5%. This compound showed an MOP % stim at MOP receptor [5] of 41.9 ± 1.4%.

In the case of `Cc1cccc(CC(=O)O[C@@]23CCC(=O)[C@@H]4Oc5c(O)ccc6c5[C@@]42CCN(CC2CC2)[C@@H]3C6)c1` [Compound 7d, 14β-(3′-methylphenylacetyl)-17-cyclopropylmethyl-7,8-dihydronoroxymorphinone], the Ki was 49.9 ± 3.5 nM on NOP receptor [1], 5.58 ± 0.22 nM on DOP receptor [6], 2.8 ± 0.91 nM on KOP receptor [7] and 1.91 ± 0.51 nM on MOP receptor [8]. In addition, the DOP % stim on DOP receptor [2] turned out to be 15.8 ± 0.1%. Moreover, the EC50 worked out at 21.3 ± 2.2 nM on DOP receptor [2], 855 ± 185 nM on NOP receptor [3], 1 ± 0.3 nM at KOP receptor [4] and 5.2 ± 2 nM on MOP receptor [5]. This compound gave an NOP % stim on NOP receptor [3] of 59.3 ± 2.4%. In addition, the KOP % stim at KOP receptor [4] is given as 46.4 ± 3.6%. Also, the MOP % stim at MOP receptor [5] is given as 40.1 ± 4.4%.

For `COc1cccc(CC(=O)O[C@@]23CCC(=O)[C@@H]4Oc5c(O)ccc6c5[C@@]42CCN(CC2CC2)C3C6)c1` [Compound 7e, 14β-(3′-methoxyphenylacetyl)-17-cyclopropylmethyl-7,8-dihydronoroxymorphinone], the Ki was determined as 50.1 ± 2.7 nM at NOP receptor [1], 3.61 ± 0.34 nM on DOP receptor [6], 1.44 ± 0.33 nM at KOP receptor [7] and 1.1 ± 0.08 nM at MOP receptor [8]. Besides, the DOP % stim at DOP receptor [2] was determined as 35.7 ± 0.7%. Also, the EC50 on DOP receptor [2] stood at 9.9 ± 0.2 nM; on NOP receptor [3], 374 ± 81.6 nM; on KOP receptor [4], 1.7 ± 0.4 nM; at MOP receptor [5], 13.3 ± 2.2 nM. This compound came in with an NOP % stim at NOP receptor [3] of 36.1 ± 0.3%. The compound further gave a KOP % stim on KOP receptor [4] of 46.3 ± 8.1%. On MOP receptor [5], this compound gave an MOP % stim of 11.3 ± 1.3%.

For `O=C(Cc1ccc2c(c1)OCO2)O[C@@]12CCC(=O)[C@@H]3Oc4c(O)ccc5c4[C@@]31CCN(CC1CC1)[C@@H]2C5` [Compound 7g, 14β-(3′,4′-dioxymethylenephenylacetyl)-17-cyclopropylmethyl-7,8-dihydronoroxymorphinone], the Ki at NOP receptor [1] turned out to be 94.3 ± 28 nM; at DOP receptor [6], 1.25 ± 0.2 nM; on KOP receptor [7], 1.2 ± 0.42 nM; on MOP receptor [8], 0.99 ± 0.35 nM. The same compound returned an NOP % stim at NOP receptor [3] of 43.5 ± 9.4%. Moreover, the figures for the EC50 on NOP receptor [3] and at KOP receptor [4] were 562 ± 67.5 nM and 5.4 ± 0.1 nM, respectively. Also, the “Type of antagonism at MOP” value at MOP receptor [9] is listed as “very potent competitive antagonists”. Also, the “MOP pA2” value on MOP receptor [9] (setting [10]) is 10.29 ± 0.24. Also, on MOP receptor [9] (antagonist activity in [35S]GTPγS assay, Schild analysis versus DAMGO, unit not given), the “MOP Ke” value amounted to 0.051 ± 0.018. The compound also showed a KOP % stim on KOP receptor [4] of 41.1 ± 0.9%. For the same compound, the MOP % stim at MOP receptor [5] is given as 12.1 ± 3.7%.

Take `COc1ccccc1CC(=O)O[C@@]12CCC(=O)[C@@H]3Oc4c(O)ccc5c4[C@@]31CCN(CC1CC1)[C@@H]2C5` [Compound 7h, 14β-(2′-methoxyphenylacetyl)-17-cyclopropylmethyl-7,8-dihydronoroxymorphinone]: the Ki on NOP receptor [1] is 62.3 ± 4.9 nM; on KOP receptor [7] it was 3.52 ± 0.9 nM; on MOP receptor [8], 3.77 ± 0.9 nM. Besides, at DOP receptor [2], the DOP % stim came to 19.2 ± 4.9%. Moreover, the NOP % stim at NOP receptor [3] amounted to 40.8 ± 5.4%. Further, the EC50 on NOP receptor [3] was determined as 479 ± 33.3 nM; at KOP receptor [4] it was 1.6 ± 0.3 nM; on MOP receptor [5], 0.5 ± 0.1 nM. In addition, the KOP % stim at KOP receptor [4] was 50.4 ± 6.0%. In addition, on MOP receptor [5], the MOP % stim is 37.3 ± 0.7%.

`O=C(Cc1ccccc1F)O[C@@]12CCC(=O)[C@@H]3Oc4c(O)ccc5c4[C@@]31CCN(CC1CC1)[C@@H]2C5` [Compound 7i, 14β-(2′-fluorophenylacetyl)-17-cyclopropylmethyl-7,8-dihydronoroxymorphinone]: the Ki stood at 69.7 ± 2.4 nM on NOP receptor [1], 4.07 ± 0.91 nM on DOP receptor [6], 4.55 ± 0.7 nM on KOP receptor [7] and 2.59 ± 1.1 nM on MOP receptor [8]. The compound further returned an NOP % stim at NOP receptor [3] of 14.5 ± 2.9%. The values for the EC50 on NOP receptor [3], at KOP receptor [4] and at MOP receptor [5] were 94.1 ± 24.7 nM, 4 ± 2 nM and 2 ± 0.7 nM, respectively. For the same compound, the KOP % stim on KOP receptor [4] is recorded as 43.8 ± 4.7%. This compound also came in with an MOP % stim at MOP receptor [5] of 27.9 ± 2.8%.

As for `O=C(Cc1ccc(Cl)cc1)O[C@@]12CCC(=O)[C@@H]3Oc4c(O)ccc5c4[C@@]31CCN(CC1CC1)C2C5` [Compound 7j, 14β-(4′-chlorophenylacetyl)-17-cyclopropylmethyl-7,8-dihydronoroxymorphinone], the Ki on NOP receptor [1] was 51.3 ± 14 nM; at DOP receptor [6], 4.95 ± 1.1 nM; on KOP receptor [7], 3.95 ± 0.59 nM; at MOP receptor [8], 1.78 ± 0.03 nM. Besides, on DOP receptor [2], the DOP % stim is listed as 37.2 ± 0.2%. This compound returned an NOP % stim at NOP receptor [3] of 18.9 ± 2.7%. Moreover, the EC50 at NOP receptor [3] turned out to be 298 ± 18.6 nM; at KOP receptor [4], 5.4 ± 1.3 nM. Besides, the “Type of antagonism at MOP” value on MOP receptor [9] is reported as “non-competitive”. In addition, the “MOP pA2” value at MOP receptor [9] (setting [10]) was “Non-competitive”. Also, at KOP receptor [4], the KOP % stim is reported as 37.1 ± 0.2%. The compound also showed an MOP % stim at MOP receptor [5] of 8.2 ± 7.2%.

For the compound `O=C(Cc1ccccc1Cl)O[C@@]12CCC(=O)[C@@H]3Oc4c(O)ccc5c4[C@@]31CCN(CC1CC1)[C@@H]2C5` [Compound 7k, 14β-(2′-chlorophenylacetyl)-17-cyclopropylmethyl-7,8-dihydronoroxymorphinone], the Ki on NOP receptor [1] amounted to 32.6 ± 2.3 nM; on DOP receptor [6], 3.24 ± 0.15 nM; at KOP receptor [7], 1.34 ± 0.5 nM; at MOP receptor [8], 4.66 ± 1.8 nM. For the same compound, at NOP receptor [3], the NOP % stim is listed as 49.9 ± 0.7%. The values for the 50% effective concentration (EC50) at NOP receptor [3], on KOP receptor [4] and at MOP receptor [5] were 808 ± 45.8 nM, 13.9 ± 6.4 nM and 2.4 ± 0.6 nM, respectively. The KOP % stim on KOP receptor [4] was 31.3 ± 5.6%. The compound also gave an MOP % stim on MOP receptor [5] of 39.3 ± 4.7%.

In the case of `CN1CC[C@]23c4c5ccc(O)c4O[C@H]2[C@@H](O)C=C[C@H]3[C@H]1C5` [morphine, Morphine hydrochloride, reference compound], in the assay with CD1 mice, the “%MPE, tail flick, positive control” value is “anticipated increase in %MPE at all time points”.
